Source: ChEMBL document CHEMBL5465560, “Selectivity Literature for EUbOPEN Chemogenomic Library” (2024)

What was measured:
[1] = target: Cyclin-dependent kinase 2 (Homo sapiens, UniProt P24941); assay: Selectivity interaction (KinomeScan (DiscoverX)) EUB0000045b CDK2
[2] = target: T1, Mitogen-activated protein kinase kinase kinase 5 (Homo sapiens) (UniProt Q99683); assay: Selectivity interaction (KinomeScan (DiscoverX)) EUB0000655a MAP3K5; conditions: at 10 µM
T1 sequence (whole entry): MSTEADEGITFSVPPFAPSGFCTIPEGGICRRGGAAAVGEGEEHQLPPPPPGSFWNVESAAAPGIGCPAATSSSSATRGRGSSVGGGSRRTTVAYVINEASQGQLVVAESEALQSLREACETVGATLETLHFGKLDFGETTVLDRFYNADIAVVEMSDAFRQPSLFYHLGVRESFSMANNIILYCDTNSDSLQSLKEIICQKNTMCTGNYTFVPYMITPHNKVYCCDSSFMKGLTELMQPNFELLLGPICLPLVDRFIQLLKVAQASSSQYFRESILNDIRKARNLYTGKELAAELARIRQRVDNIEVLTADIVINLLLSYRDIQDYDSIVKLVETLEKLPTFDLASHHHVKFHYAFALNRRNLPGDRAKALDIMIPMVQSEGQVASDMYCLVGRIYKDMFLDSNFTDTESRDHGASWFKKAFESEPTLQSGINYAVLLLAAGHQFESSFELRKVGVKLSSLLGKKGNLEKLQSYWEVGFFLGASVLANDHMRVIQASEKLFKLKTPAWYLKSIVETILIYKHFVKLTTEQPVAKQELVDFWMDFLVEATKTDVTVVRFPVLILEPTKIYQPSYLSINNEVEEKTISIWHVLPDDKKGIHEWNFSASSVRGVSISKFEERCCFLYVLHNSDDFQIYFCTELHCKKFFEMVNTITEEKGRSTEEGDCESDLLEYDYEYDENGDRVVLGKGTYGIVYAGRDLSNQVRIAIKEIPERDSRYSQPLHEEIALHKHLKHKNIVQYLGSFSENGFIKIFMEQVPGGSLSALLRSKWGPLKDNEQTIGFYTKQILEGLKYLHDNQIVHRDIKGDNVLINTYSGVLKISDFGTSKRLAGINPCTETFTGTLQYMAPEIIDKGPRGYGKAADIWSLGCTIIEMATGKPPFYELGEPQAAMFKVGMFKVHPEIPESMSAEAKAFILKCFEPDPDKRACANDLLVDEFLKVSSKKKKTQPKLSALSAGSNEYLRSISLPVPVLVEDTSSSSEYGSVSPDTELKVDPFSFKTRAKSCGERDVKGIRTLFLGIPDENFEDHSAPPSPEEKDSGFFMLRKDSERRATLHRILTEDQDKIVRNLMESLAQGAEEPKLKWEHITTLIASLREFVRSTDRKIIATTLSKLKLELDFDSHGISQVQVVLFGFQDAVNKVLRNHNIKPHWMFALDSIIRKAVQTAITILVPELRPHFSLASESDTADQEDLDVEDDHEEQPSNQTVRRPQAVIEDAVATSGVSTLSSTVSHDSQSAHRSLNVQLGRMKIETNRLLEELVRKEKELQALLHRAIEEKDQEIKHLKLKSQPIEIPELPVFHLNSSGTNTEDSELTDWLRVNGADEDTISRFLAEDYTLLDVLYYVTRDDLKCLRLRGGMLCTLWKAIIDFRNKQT

[3] = target: T2, Myosin-IIIb (Homo sapiens) (UniProt Q8WXR4); assay: Selectivity interaction (KinomeScan (DiscoverX)) EUB0000655a MYO3B; conditions: at 10 µM
T2 sequence (whole entry): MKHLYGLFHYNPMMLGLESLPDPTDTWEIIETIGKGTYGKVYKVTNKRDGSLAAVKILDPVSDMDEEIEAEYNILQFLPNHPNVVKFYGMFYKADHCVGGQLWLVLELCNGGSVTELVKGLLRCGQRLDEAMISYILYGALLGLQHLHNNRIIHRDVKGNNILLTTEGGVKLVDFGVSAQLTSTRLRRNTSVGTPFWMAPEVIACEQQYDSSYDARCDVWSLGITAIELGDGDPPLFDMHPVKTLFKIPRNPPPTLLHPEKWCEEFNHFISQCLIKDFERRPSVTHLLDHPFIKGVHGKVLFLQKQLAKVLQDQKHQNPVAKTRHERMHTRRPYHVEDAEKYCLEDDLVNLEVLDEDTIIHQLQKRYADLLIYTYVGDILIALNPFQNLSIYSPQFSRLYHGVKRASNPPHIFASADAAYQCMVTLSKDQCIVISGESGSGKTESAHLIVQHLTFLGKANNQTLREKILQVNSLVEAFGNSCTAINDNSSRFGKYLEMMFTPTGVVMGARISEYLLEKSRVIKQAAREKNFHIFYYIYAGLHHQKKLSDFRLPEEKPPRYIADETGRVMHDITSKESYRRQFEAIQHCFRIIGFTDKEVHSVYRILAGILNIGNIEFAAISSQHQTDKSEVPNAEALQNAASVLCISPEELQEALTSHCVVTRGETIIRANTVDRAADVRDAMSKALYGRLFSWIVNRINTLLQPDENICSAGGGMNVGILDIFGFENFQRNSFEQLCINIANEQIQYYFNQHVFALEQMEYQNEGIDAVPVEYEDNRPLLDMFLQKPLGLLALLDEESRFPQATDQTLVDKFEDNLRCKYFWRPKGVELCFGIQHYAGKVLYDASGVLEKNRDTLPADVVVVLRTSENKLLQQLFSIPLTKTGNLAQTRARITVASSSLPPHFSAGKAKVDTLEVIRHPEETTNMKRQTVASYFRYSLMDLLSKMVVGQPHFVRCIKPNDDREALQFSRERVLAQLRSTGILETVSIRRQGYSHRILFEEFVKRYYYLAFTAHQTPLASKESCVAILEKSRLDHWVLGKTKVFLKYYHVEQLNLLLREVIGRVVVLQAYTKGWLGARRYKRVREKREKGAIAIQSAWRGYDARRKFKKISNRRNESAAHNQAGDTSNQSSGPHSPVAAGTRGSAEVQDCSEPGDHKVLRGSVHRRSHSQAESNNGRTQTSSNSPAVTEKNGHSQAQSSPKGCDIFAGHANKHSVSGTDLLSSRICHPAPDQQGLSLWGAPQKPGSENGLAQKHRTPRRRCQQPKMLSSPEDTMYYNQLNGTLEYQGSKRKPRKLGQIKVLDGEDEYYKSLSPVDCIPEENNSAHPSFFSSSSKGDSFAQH

## C=CC(=O)Nc1cc(-n2c(=O)ccc3cnc4ccc(-c5ccc(NS(C)(=O)=O)cc5)cc4c32)ccc1C
[1]; at 1 µM
  % of control: 95%
[1]; at 10 µM
  % of control: 100%

## CN(C)CCOc1ccc(-c2nc(-c3ccncc3)c(-c3ccc4c(c3)CC/C4=N\O)[nH]2)cc1
[2]
  % of control: 94%
[3]
  % of control: 81%
